Test results from PubChem BioAssay (NCI).
Values joined by “and” are separate entries in the source; they are usually repeats but may differ in a detail not shown here. Equal entries are not always repeated.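 Test compounds were applied to cells in 96-well plates for 48 hours at 5 doses. GI50 is the concentration that inhibits growth by half. TGI is the concentration that stops growth completely.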

Assays:
Test in all cases: NCI tumour cell line growth inhibition, 48 h
[1] = system: NCI-H226 lung
[2] = system: OVCAR-5 ovarian
[3] = system: MDA-N
[4] = system: MDA-MB-231 breast
[5] = system: ACHN renal
[6] = system: RPMI-8226 leukemia
[7] = system: SK-OV-3 ovarian
[8] = system: SNB-75 CNS
[9] = system: HT29 colon
[10] = system: MDA-MB-435
[11] = system: BT-549 breast
[12] = system: OVCAR-8 ovarian
[13] = system: UACC-257 melanoma
[14] = system: HCT-116 colon
[15] = system: HCC-2998 colon
[16] = system: SK-MEL-2 melanoma
[17] = system: SNB-19 CNS
[18] = system: LOX IMVI melanoma
[19] = system: NCI-H23 lung
[20] = system: OVCAR-4 ovarian
[21] = system: NCI/ADR-RES ovarian
[22] = system: MALME-3M melanoma
[23] = system: U251 CNS
[24] = system: UACC-62 melanoma
[25] = system: HOP-62 NSCLC
[26] = system: CAKI-1 renal
[27] = system: NCI-H460 lung
[28] = system: UO-31 renal
[29] = system: SK-MEL-28 melanoma
[30] = system: MCF7 breast
[31] = system: OVCAR-3 ovarian
[32] = system: EKVX NSCLC
[33] = system: KM12 colon
[34] = system: HS 578T breast
[35] = system: HL-60(TB) leukemia
[36] = system: MOLT-4 leukemia
[37] = system: A498 renal
[38] = system: CCRF-CEM leukemia
[39] = system: IGROV1 ovarian
[40] = system: T-47D breast
[41] = system: SN12C renal
[42] = system: A549 NSCLC
[43] = system: PC-3 prostate
[44] = system: DU-145 prostate
[45] = system: SK-MEL-5 melanoma
[46] = system: COLO 205 colon
[47] = system: HCT-15 colon
[48] = system: M14 melanoma
[49] = system: SF-268 CNS
[50] = system: NCI-H522 lung
[51] = system: RXF 393 renal
[52] = system: K-562 leukemia
[53] = system: SF-295 CNS
[54] = system: HOP-92 NSCLC
[55] = system: 786-0 renal
[56] = system: TK-10 renal
[57] = system: SR leukemia
[58] = system: SW-620 colon
[59] = system: DMS 273 small cell lung
[60] = system: SF-539 CNS
[61] = system: KM20L2 colon
[62] = system: DLD-1 colon
[63] = system: SNB-78 CNS
[64] = system: M19-MEL melanoma
[65] = system: DMS 114 small cell lung

CCS1=C2C(=O)CC(C)(C)CC2=Nc2ccccc21 (stereo not drawn)
TGI [1]: > 100 µM
TGI [2]: > 100 µM
TGI [3]: > 100 µM
TGI [4]: > 100 µM
TGI [5]: > 100 µM
TGI [6]: > 100 µM
TGI [7]: > 100 µM
TGI [8]: > 100 µM
TGI [9]: > 100 µM
TGI [10]: > 100 µM
TGI [11]: > 100 µM
TGI [12]: > 100 µM
TGI [13]: > 100 µM
TGI [14]: > 100 µM
TGI [15]: > 100 µM
TGI [16]: > 100 µM
TGI [17]: > 100 µM
TGI [18]: > 100 µM
TGI [19]: > 100 µM
TGI [20]: > 100 µM
TGI [21]: > 100 µM
TGI [22]: > 100 µM
TGI [23]: > 100 µM
TGI [24]: > 100 µM
TGI [25]: > 100 µM
TGI [26]: > 100 µM
TGI [27]: > 100 µM
TGI [28]: > 100 µM
TGI [29]: > 100 µM
TGI [30]: > 100 µM
TGI [31]: > 100 µM
TGI [32]: > 100 µM
TGI [33]: > 100 µM
TGI [34]: > 100 µM
TGI [35]: > 100 µM
TGI [36]: > 100 µM
TGI [37]: > 100 µM
TGI [38]: > 100 µM
TGI [39]: > 100 µM
TGI [40]: > 100 µM
TGI [41]: > 100 µM
TGI [42]: > 100 µM
TGI [43]: > 100 µM
TGI [44]: > 100 µM
TGI [45]: > 100 µM
TGI [46]: > 100 µM
TGI [47]: > 100 µM
TGI [48]: > 100 µM
TGI [49]: > 100 µM
TGI [50]: > 100 µM
TGI [51]: > 100 µM
TGI [52]: > 100 µM
TGI [53]: > 100 µM
TGI [54]: > 100 µM
TGI [55]: > 100 µM
TGI [56]: > 100 µM
TGI [57]: > 100 µM
TGI [58]: > 100 µM

COc1cc2c(c(OC)c1OC)-c1ccc(SC)c(=O)cc1[C@@H](NC(=O)c1cccc([N+](=O)[O-])c1)CC2
TGI [2]: > 100 µM
TGI [5]: > 100 µM
TGI [7]: 0.0638 µM
TGI [59]: 70.2 µM
TGI [9]: 0.0708 µM
TGI [60]: 0.0377 µM
TGI [13]: 33.9 µM
TGI [14]: 0.0439 µM and 0.117 µM
TGI [15]: 0.0497 µM
GI50 [17]: 0.0268 µM
TGI [20]: > 100 µM
TGI [23]: 0.0577 µM
TGI [24]: 36.4 µM
TGI [25]: 14.9 µM
GI50 [28]: 0.0276 µM
TGI [28]: > 100 µM
GI50 [29]: 10.5 µM
TGI [29]: 82.3 µM
TGI [31]: 0.0404 µM
TGI [32]: 27.3 µM
TGI [33]: > 100 µM
TGI [36]: > 100 µM
TGI [37]: 0.0479 µM
TGI [61]: 0.0358 µM
TGI [38]: > 100 µM
TGI [39]: 35.6 µM
TGI [62]: > 100 µM
TGI [41]: 21.6 µM
GI50 [42]: 0.033 µM
TGI [42]: 23.1 µM
TGI [63]: > 100 µM
TGI [45]: 0.0467 µM
TGI [46]: 0.0343 µM
GI50 [47]: 0.027 µM
TGI [47]: > 100 µM
TGI [49]: 16.5 µM
TGI [64]: > 100 µM
TGI [52]: > 100 µM
GI50 [65]: 0.0165 µM
TGI [65]: 0.0365 µM
TGI [55]: 11.8 µM
TGI [56]: 55.3 µM
GI50 [57]: 0.00851 µM
TGI [57]: 0.0732 µM
TGI [58]: > 100 µM
